# Measured values as given in patent publication US12552694B2, “Use of trivalent metals to enhance aquatic pesticide efficacy, surface water, and sediment quality while minimizing risk to aquatic biota” (SePRO Corporation, priority 2022, dated 2026).
# Where two headings read alike, the source gives them in different places.
# Tests used:
# [1] = Example 1: capacity of additives to bind dissolved La and Ce (ICP-OES); format: physicochemical
# [2] = Example 4: bound La and Ce over time and final pH (FIG. 1); format: physicochemical; details: after the final samples (30 minutes), continuously stirred; control 5.6
# duckweed (Lemna spp.) = experiment: Example 7: duckweed plant coverage (Canopeo) after herbicides with and without La/Ce; format: in vivo; details: for Plant coverage, 3 Days Post: 3 days post treatment; for Plant coverage, 5 Days Post: 5 days post treatment; for Plant coverage, 7 Days Post: 7 days post treatment; for Plant coverage, Pre-Treat.: prior to treatments (baseline)
# duckweed = details: 24 hours
# Method: In one exemplary experiment, 16-oz cups were filled with 400 mL of well water containing approximately 100 μg-P/L as phosphate. One cup was left as the no biomass control and approximately 8 g (±0.5 g) of actively growing duckweed were added to the other cups. One cup was left as a control and diquat (as Weedtrine® D) was added to each of the other cups at the following rates: 50 μg/L. 100 μg/L, 200 μg/L, and 300 μg/L. These samples were then placed under artificial lighting with a scheduled 16-hour light period and 8-hour dark period. […] Samples then were briefly stirred and allowed to sit under the lighting. After 2 hours, water samples were collected with a syringe, filtered with a 0.22 μm nylon filter, acidified with nitric acid, and analyzed for lanthanum and cerium concentration.
# [3] = test sample: La/Ce stock in 50 mL deionized water with 90-110 mg additive
compound,measurement,setting,value
"O=C([O-])[O-].[Ca+2] [Calcium carbonate, calcium carbonate]",pH,[1],7.5
"[Ca+2].[OH-].[OH-] [Calcium hydroxide, calcium hydroxide]",pH,[1],14
same,pH of beaker,[2],8.7 (±0.1)
"Cc1nn(-c2cc(CC(Cl)C(=O)O)c(Cl)cc2F)c(=O)n1C(F)F (centres unmarked) [Carfentrazone only, carfentrazone]",% Change in plant coverage,duckweed (Lemna spp.); 3 Days Post vs pre-treatment,13%
same,% Change in plant coverage,duckweed (Lemna spp.); 5 Days Post vs pre-treatment,−29%
same,% Change in plant coverage,duckweed (Lemna spp.); 7 Days Post vs pre-treatment,−17%
same,"Plant coverage, 3 Days Post",duckweed (Lemna spp.),39%
same,"Plant coverage, 5 Days Post",duckweed (Lemna spp.),24%
same,"Plant coverage, 7 Days Post",duckweed (Lemna spp.),29%
same,"Plant coverage, Pre-Treat.",duckweed (Lemna spp.),34%
"c1cc[n+]2c(c1)-c1cccc[n+]1CC2 [Diquat only, diquat]",% Change in plant coverage,duckweed (Lemna spp.); 3 Days Post vs pre-treatment,−75%
same,% Change in plant coverage,duckweed (Lemna spp.); 5 Days Post vs pre-treatment,−89%
same,% Change in plant coverage,duckweed (Lemna spp.); 7 Days Post vs pre-treatment,−92%
same,"Plant coverage, 3 Days Post",duckweed (Lemna spp.),10%
same,"Plant coverage, 5 Days Post",duckweed (Lemna spp.),4%
same,"Plant coverage, 7 Days Post",duckweed (Lemna spp.),3%
same,"Plant coverage, Pre-Treat.",duckweed (Lemna spp.),40%
same,Perceived injury,duckweed; 50 μg/L diquat,20%
same,Perceived injury,duckweed; 100 μg/L diquat,40%
same,Perceived injury,duckweed; 200 μg/L diquat,50%
same,Perceived injury,duckweed; 300 μg/L diquat,80%
"NC(=O)CC[C@H](N)C(=O)O [Glutamine, glutamine]",pH,[1]; [3],7
"[O]=[Mg] [Magnesium oxide, magnesium oxide]",pH,[1],7.5
same,pH of beaker,[2],8.0 (±0.1)
"O.O=C([O-])C(=O)[O-].[K+].[K+] [Potassium oxalate (monohydrate), potassium oxalate (monohydrate)]",pH,[1],7
"C=CC(=O)[O-].[Na+] [Sodium acrylate, sodium acrylate]",pH,[1],7
"O=C([O-])CC(O)(CC(=O)[O-])C(=O)[O-].[Na+].[Na+].[Na+] [Sodium citrate, sodium citrate]",pH,[1],8
"[Na+].[OH-] [Sodium hydroxide, sodium hydroxide]",pH,[1],14
"O=[Si]([O-])[O-].[Na+].[Na+] [Sodium metasilicate (anhydrous), sodium metasilicate (anhydrous)]",pH,[1]; [3],13
"O=C([O-])C(O)C(O)C(=O)[O-].[Na+].[Na+] (centres unmarked) [Sodium tartrate, sodium tartrate]",pH,[1],6.5
copper ethanolamine [Copper ethanolamine only],% Change in plant coverage,duckweed (Lemna spp.); 3 Days Post vs pre-treatment,−2%
same,% Change in plant coverage,duckweed (Lemna spp.); 5 Days Post vs pre-treatment,−89%
same,% Change in plant coverage,duckweed (Lemna spp.); 7 Days Post vs pre-treatment,−89%
same,"Plant coverage, 3 Days Post",duckweed (Lemna spp.),35%
same,"Plant coverage, 5 Days Post",duckweed (Lemna spp.),4%
same,"Plant coverage, 7 Days Post",duckweed (Lemna spp.),4%
same,"Plant coverage, Pre-Treat.",duckweed (Lemna spp.),35%
fluridone [Fluridone only],% Change in plant coverage,duckweed (Lemna spp.); 3 Days Post vs pre-treatment,−8%
same,% Change in plant coverage,duckweed (Lemna spp.); 5 Days Post vs pre-treatment,−15%
same,% Change in plant coverage,duckweed (Lemna spp.); 7 Days Post vs pre-treatment,−14%
same,"Plant coverage, 3 Days Post",duckweed (Lemna spp.),23%
same,"Plant coverage, 5 Days Post",duckweed (Lemna spp.),22%
same,"Plant coverage, 7 Days Post",duckweed (Lemna spp.),22%
same,"Plant coverage, Pre-Treat.",duckweed (Lemna spp.),25%
